Test systems include DMS 273 small cell lung; HOP-18 NSCLC; LXFL 529 NSCLC; XF 498 CNS; KM20L2 colon; P388 leukemia; P388/ADR leukemia; SN12K1 renal; SNB-78 CNS.
Assay in all cases: NCI tumour cell line growth inhibition, 48 h

The source of these data is PubChem BioAssay (NCI).

Where “and” joins values, the source holds several entries; their conditions need not be identical. Equal values may be shown once.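 Test compounds were applied to cells in 96-well plates for 48 hours at 5 doses. GI50: concentration for 50% inhibition of growth. TGI marks complete inhibition of growth.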

On to `Cn1c2ccccc2n2c3nc4ccccc4nc3c(C#N)c12`, for which the TGI with DMS 273 small cell lung, in the assay on HOP-18 NSCLC, with LXFL 529 NSCLC and with XF 498 CNS was more than 100 µM each time.

With `CC(NCCS(=O)(=O)O)C(=O)O` (centres undefined), the TGI in the assay with DMS 273 small cell lung, in the assay with HOP-18 NSCLC, with KM20L2 colon, with P388 leukemia, in the assay with P388/ADR leukemia and in the assay with SN12K1 renal was more than 100 µM throughout. Further, the TGI in the assay on SNB-78 CNS and with XF 498 CNS was more than 100 µM in each case.

`Nc1nc(N)c2ncn(CC(CO)CC(c3ccccc3)P(=O)(O)O)c2n1` (centres undefined): the TGI is more than 100 µM in the assay on DMS 273 small cell lung; more than 100 µM in the assay on HOP-18 NSCLC; more than 100 µM with KM20L2 colon; > 100 µM and 99.3 µM in the assay on LXFL 529 NSCLC; more than 100 µM with SNB-78 CNS; more than 100 µM in the assay on XF 498 CNS. In addition, in the assay with LXFL 529 NSCLC, the GI50 was > 100 µM and 13.8 µM.

On to `Cc1c2cc[n+](C)cc2c(C)c2c1[nH]c1ccccc12`, for which the TGI in the assay on DMS 273 small cell lung is 12.3 µM and 14.2 µM; in the assay on HOP-18 NSCLC, 21.3 µM and 32 µM; with KM20L2 colon it was 33.4 µM and 19.9 µM; with P388 leukemia it was 24.5 µM and 22.2 µM; with P388/ADR leukemia, more than 77.4 µM; with SN12K1 renal, 4.3 µM and 4.19 µM. Also, the TGI in the assay with XF 498 CNS was 5.09 µM and 2.45 µM. Further, the GI50 is 5.47 µM with HOP-18 NSCLC; 4.95 µM and 2.34 µM in the assay with KM20L2 colon; 0.856 µM in the assay with XF 498 CNS.
